The record followed here is patent EP0548798A1, “Antiviral agent” (SANWA KAGAKU KENKYUSHO CO., LTD., priority 1991, dated 1993).

In brackets after ≈: the same amount, converted by molar mass. Where two headings read alike, the source gives them in different places.

The test system of data set [1] is herpes simplex virus type 1 (Miyama strain). Description: Antiviral activity against HSV-1 in vitro, inhibition of virus-induced CPE in GMK cells (Test Example 2). The conditions noted are these: 0.5% fetal bovine serum. Format: cell-based, HSV-1 (Miyama strain). The method, then:
(§1) Confluent GMK cells (derived from green monkey kidney) in 96-well plates were infected with HSV-1 (Miyama strain) in the presence of various concentrations of test compounds. After incubation, virus-induced cytopathic effect (CPE), inhibitory effect of CPE by the test compound and cytotoxicity were microscopically observed. The virus titer (TCID₅₀) was determined from CPE of virus infected culture. Ancivirus effects of test compounds were calculated from TCID₅₀ values of test compound treated and control cultures and represented by ΔTCID₅₀(log₁₀). Test compounds were dissolved in MEM medium, ethanol or DMSO to 10 mg/ml, and diluted with MEM medium supplemented with 0.5% fetal bovine serum.

Data set [2] deals with GMK cells. Description: Cytotoxicity observed microscopically in GMK cells (Test Example 2). The class given is cell-based, green monkey. Set-up: key: -: no cytotoxicity; ±: slight cytotoxicity; +: cytotoxicity with observable antiviral effect. The conditions noted are these: in parentheses. The method, then:
as §1
In Table 4, parentheses indicate the cytotoxicity of these compounds. (-), (±) and (+) indicate no cytotoxicity, slight cytotoxicity and cytotoxicity with observable antiviral effect, respectively.

A further data set concerns HIV. Description: Inhibition of HIV-induced cytopathogenicity in MT-4 cells. Format: cell-based. As for the experimental part:
MT-4 cells (lymphoma derived from human T cell leukemia) in 96-well plate were infected with […] in the presence of various concentrations of test compounds. After incubation, inhibitory effect of HIV-induced CPE by the test compounds and cytotoxicity were microscopically observed. […]
Further, since the compounds of the present invention have a chemical structure different from the conventional antiviral substances, it is useful for the prevention or treatment of the infectious diseases caused by viruses resistant to the conventional antiviral substances.
A general note: Damage to the host cells serves as the signal in cytopathic effect assays.

In the next data set the test system is MT-4 cells. The experiment in a line: Minimum cytotoxic concentration in MT-4 cells. Format: cell-based, human. The method, then:
MT-4 cells (lymphoma derived from human T cell leukemia) in 96-well plate were infected with […] in the presence of various concentrations of test compounds. After incubation, inhibitory effect of HIV-induced CPE by the test compounds and cytotoxicity were microscopically observed. […] TABLE 6 In Table 6, parentheses indicate the minimum cytotoxic concentration of test compounds.

Data set [3] concerns herpes simplex virus type 1 (Miyama strain). The experiment in a line: Antiviral activity against HSV-1 in vitro, inhibition of virus-induced CPE in GMK cells (Test Example 1). Format: cell-based, HSV-1 (Miyama strain). As to conditions: Human alphaherpesvirus 1, GMK cells, 1% fetal bovine serum, read-out: Antiviral Activity (ΔTCID₅₀(log₁₀)). As for the experimental part:
(§2) Confluent GMK cells (derived from green monkey kidney) in 96-well plates were infected with HSV-1 (Miyama strain) in the presence of various concentrations of test compounds. […] The virus titer (TCID₅₀) was determined from CPE of virus infected culture. Antivirus effects of test compounds were calculated from TCID₅₀ values of test compound treated and control cultures and represented by ΔTCID₅₀(log₁₀). Test compounds were dissolved in MEM medium, ethanol or DMSO to 10 mg/ml, and diluted with MEM medium supplemented with 1% fetal bovineserum.

In data set [4] the test system is GMK cells. Description: Cytotoxicity observed microscopically in GMK cells (Test Example 1). The conditions noted are these: GMK cells, in parentheses. The class given is cell-based, green monkey. The method, then:
as §2
In Table 1, parentheses indicate the cytotoxicity of these compounds. (-) and (±) indicate no cytotoxicity and slight cytotoxicity, respectively.

A further data set concerns HSV-1 (Miyama strain). Description: Anti HSV-1 activity in vivo, intraperitoneally infected mice. Set-up: species or system Male BALB/c mice. The conditions noted are these: 322 PFU (10LD₅₀) HSV-1. As for the experimental part: Male BALB/c mice (5 weeks of age) were intraperitoneally infected with 322 PFU (plaque forming unit, 10LD₅₀) of HSV-1 (Miyama strain). Twenty one days later, survival ratio and mean survival days were evaluated. Test compounds were dispersed in 5% arabic gum/physiological saline, and intraperitoneally administered at 10 mg and 20 mg/kg. Treatment began just after virus inoculation and continued for 5 days.

[5] abbreviates: Human immunodeficiency virus 1, MT-4 cells, minimum inhibitory concentration, read-out: Anti-HIV Activity (MIC, µg/ml).
The mark [6] stands for this setting: 10 mg/kg intraperitoneally for 5 days.
Setting [7] is: 20 mg/kg intraperitoneally for 5 days.
[8] abbreviates: Human immunodeficiency virus 1, read-out: Anti-HIV Activity (MIC, µg/ml).

For `CCCCCCCC(=O)N1CCN(c2ccccc2C(F)(F)F)CC1` [Compound of Example 16, 1-(2-Trifluoromethylphenyl)-4-octanoylpiperazine], the entries for the “Antiviral Activity (ΔTCID₅₀(log₁₀))” value in data set [1] (5 µg/ml) and in data set [1] (10 µg/ml) were 2.16 log₁₀ and over 3.00 log₁₀, respectively. Besides, the cytotoxicity result is “-” in the data set with GMK cells [2] (5 µg/ml) and “+” in the data set on GMK cells [2] (10 µg/ml). For the same molecule, the MIC in the data set on HIV (setting [5]) was over 63 µg/mL. In the data set on MT-4 cells (MT-4 cells, in parentheses), the minimum cytotoxic concentration amounted to 125 µg/mL.
Consider `CCCCC/C=C\C/C=C\CCCCCCCC(=O)N1CCN(c2ccccc2Cl)CC1` [Compound of Example 8, 1-(2-Chlorophenyl)-4-[(Z,Z)-9,12-octadecadienoyl]piperazine], for which the log reduction at 10 µg/mL in data set [3] was 2. The cytotoxicity entry with GMK cells [4] (10 µg/ml) is given as “-”. In addition, in the data set with HSV-1 (Miyama strain) (setting [6]), the “Mean Survival Days” value came out at 13.7 ± 1.6 days and the “Survival Ratio at 21 days (%)” value is 20%. In the data set on HSV-1 (Miyama strain) (setting [7]), the “Mean Survival Days” value is 16.4 ± 2.0 days and the “Survival Ratio at 21 days (%)” value worked out at 40%. For the same molecule, the MIC with HIV (setting [5]) is 16 µg/mL (≈ 34.8 µM). Moreover, the minimum cytotoxic concentration in the data set on MT-4 cells (MT-4 cells, in parentheses) is over 125 µg/mL.
In the case of `CC[C@@]12C=C(C(=O)OCCN3CCN(c4ccccc4OC)CC3)n3c4c(c5ccccc53)CCN(CCC1)[C@H]42` [Compound of Example 27, (3α,16α)-Eburunamenine-14-carboxylic acid 2-[4-(2-methoxyphenyl)piperazine-1-yl]ethyl ester], the “Antiviral Activity (ΔTCID₅₀(log₁₀))” value worked out at 1.00 log₁₀ in data set [1] (5 µg/ml) and 3.00 log₁₀ in data set [1] (10 µg/ml). Moreover, the cytotoxicity result in the data set on GMK cells [2] (5 µg/ml) is listed as “-”; in the data set on GMK cells [2] (10 µg/ml), “±”. Besides, in the data set with HIV (setting [8]), the MIC stood at 8 µg/mL (≈ 14.8 µM). In the data set on MT-4 cells, this molecule came in with a minimum cytotoxic concentration of 63 µg/mL.
Take `CC[C@@]12C=C(C(=O)OCCN3CCN(c4ccccc4Cl)CC3)n3c4c(c5ccccc53)CCN(CCC1)[C@H]42` [Compound of Example 28, (3α,16α)-Eburunamenine-14-carboxylic acid 2-[4-(2-chlorophenyl)piperazine-1-yl]ethyl ester]: the “Antiviral Activity (ΔTCID₅₀(log₁₀))” value in data set [1] (5 µg/ml) is reported as 2.00 log₁₀; in data set [1] (10 µg/ml), 3.00 log₁₀. The cytotoxicity result with GMK cells [2] (5 µg/ml) is “-”; in the data set on GMK cells [2] (10 µg/ml), “+”. In addition, the MIC with HIV (setting [8]) came out at 4 µg/mL (≈ 7.34 µM). In addition, the minimum cytotoxic concentration with MT-4 cells was 63 µg/mL.
Take `CCCCCCCC(=O)N1CCN(c2ccccc2Cl)CC1` [Compound of Example 9, 1-(2-Chlorophenyl)-4-octanoylpiperazine]: the log reduction at 5 µg/mL in data set [3] (5 µg/ml) amounted to 0.83. The log reduction at 10 µg/mL in data set [3] was over 3. For the same molecule, the cytotoxicity result was “-” with GMK cells [4] (5 µg/ml) and “±” in the data set with GMK cells [4] (10 µg/ml). Moreover, the “Mean Survival Days” value stood at 14.2 ± 1.5 days in the data set with HSV-1 (Miyama strain) (setting [6]) and 18.7 ± 1.8 days in the data set on HSV-1 (Miyama strain) (setting [7]). For the same molecule, the entries for the “Survival Ratio at 21 days (%)” value with HSV-1 (Miyama strain) (setting [6]) and in the data set with HSV-1 (Miyama strain) (setting [7]) were 20% and 60%, respectively. In the data set on HIV (setting [5]), the MIC is over 125 µg/mL. Besides, in the data set with MT-4 cells (MT-4 cells, in parentheses), the minimum cytotoxic concentration is over 250 µg/mL.
For `COc1cc2c(=O)n(N3CCN(c4ccccc4C(F)(F)F)CC3)ncc2c(OC)c1OC` [Compound of Example 19, 2-[4-(2-Trifluoromethylphenyl)-1-piperazinyl]-5,6,7-trimethoxy-1(2H)-phthalazinone], the “Antiviral Activity (ΔTCID₅₀(log₁₀))” value was 1.17 log₁₀ in data set [1] (5 µg/ml) and over 3.00 log₁₀ in data set [1] (10 µg/ml). Further, the results for the cytotoxicity result with GMK cells [2] (5 µg/ml) and in the data set with GMK cells [2] (10 µg/ml) were “-” and “+”, respectively. Moreover, the MIC in the data set with HIV (setting [5]) was determined as 31 µg/mL (≈ 66.7 µM). Besides, in the data set with MT-4 cells (MT-4 cells, in parentheses), the minimum cytotoxic concentration is over 125 µg/mL.
